Test [1] has as its system Cryptococcus neoformans. Description: minimum inhibitory concentration, Cryptococcus neoformans, broth microdilution. The format is cell-based. Conditions: 24 h. On the procedure: Microorganism inocula was harvested from one to five day old cultures grown on Sabourand's dextrose agar. After two washes with sterile saline, the inocula were counted utilizing a hemacytometer and diluted or concentrated as required to 1×10^4 blastospores per ml. Sterile molten agar (at 50° C.) was inoculated, allowed to cool, and 10 mm diameter discs impregnated (from […] stock solutions) with each of the test compounds was placed on the surface of the agar. Zones of inhibition were measured after incubating the plates at 30° C. for 24-48 hours.
The compounds were then screened against three strains of three species of microorganisms: Candida albicans, Cryptococcus neoformans, and Aspergillus fumigatus using a conventional double dilution technique. All tests reported in Table II were done by broth microdilution in yeast nitrogen base-glucose using an inoculum of 1×10^4 blastospores per ml; the cultures were incubated at 37° C. for 24 hours, and the minimum concentration (in μg/ml) that prevents visible growth was recorded as the minimum inhibitory concentration.

For test [2], the system named is C. neoformans. The test is described as follows: second in vivo assay, survival of mice infected with C. neoformans. The arrangement: species or system C. neoformans in ICR mice. The following applies: 5 mg/kg subcutaneous BID. On the procedure: Ten immunocompetent ICR mice weighing 30 g each in two groups were inoculated intravenously with 255 colony forming units of Cryptococcus neoformans (isolate NIH C-1) per mouse.
A second in vivo assay was conducted as in Example VI with the exception that infection was with 488 colony forming units of C. neoformans, and that the test compound was administered 5 mg/kg, subcutaneous, BID.

In brackets after ≈: the same amount, converted by molar mass. Read-outs that look alike come from different tables or passages of the source.

With `COCCOCCOCCOCCOCCOCCNC(=O)[C@H]1[C@@H]2C[C@@H](O[C@@H]3O[C@H](C)[C@@H](O)[C@H](N)[C@@H]3O)/C=C/C=C/C=C/C=C/C=C/C=C/C=C/[C@H](C)[C@@H](O)[C@@H](C)[C@H](C)OC(=O)C[C@H](O)C[C@H](O)CC[C@@H](O)[C@H](O)C[C@H](O)C[C@](O)(C[C@@H]1O)O2` [Example II], the MIC in test [1] (C. neoformans (1), 37° C., read-out: minimum inhibitory concentration) is 3.2 µg/mL (≈ 2.66 µM); in test [1] (C. neoformans (2), 37° C., read-out: minimum inhibitory concentration), 3.2 µg/mL (≈ 2.66 µM); in test [1] (read-out: minimum inhibitory concentration, C. neofornams (3), 37° C.), 3.2 µg/mL (≈ 2.66 µM). Further, the percent survival in test [2] (day 11 post-infection) was found to be 100%; in test [2] (day 12 post-infection) it was 80%; in test [2] (day 13 post-infection), 60%; in test [2] (day 14 post-infection), 60%; in test [2] (day 15 post-infection) it was 60%; in test [2] (day 16 post-infection), 60%. For the same compound, the percent survival is given as 60% in test [2] (day 17 post-infection); 60% in test [2] (day 19 post-infection); 60% in test [2] (day 20 post-infection); 60% in test [2] (day 21 post-infection); 60% in test [2] (day 22 post-infection); 40% in test [2] (day 23 post-infection). Moreover, the percent survival in test [2] (day 24 post-infection) is reported as 20%; in test [2] (day 27 post-infection), 20%; in test [2] (day 28 post-infection), 10%; in test [2] (day 29 post-infection) it was 10%; in test [2] (day 30 post-infection) it was 0%.
